Source: patent US20080171710A1, “The Redox/Fyn/c-Cbl Pathway” (priority 2007, published 2008)

Tests used:
cancer cells = experiment: Cancer cell viability (MTT assays), FIG. 22; format: cell-based; details: TMX 1-50 μM, 48 hours
MDA-MB-231 cell = MDA-MB-231 cell division by BrdU incorporation; format: cell-based; details: NAC 1 mM or PP1 200 nM with 20 μM tamoxifen, 48 hours
Experimental: It has been reported that c-Cbl induced down-regulation of EGFR is disabled in cancer cells (Hirsch DS, Shen. Y, Wu WJ, (2006) Cancer Res. Apr 1;66(7):3523-30). Thus, growth and motility inhibition of breast cancer cells by EGFR degradation is correlated with inaetivation of Cdc42. […] Cells were cultured in phenol red-free growth media and exposed to TMX (0, 1 μM, 10 μM, 20 μM and 50 μM) for 48 hours, with or without 1 mM NAC. In FIG. 22C. MDA-MB-231 cell division was analyzed by BrdU incorporation analysis. […] Percentage of Brdu+ cells from DAPI+ cells was determined in each sample.

TrkC [1] = format: cell-based, rat; details: MeHg, Pb or paraquat
Method in brief: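 Western blot of cell lysates or sonicated tissue in RAPI buffer, SDS-PAGE to PVDF, primary antibodies (phospho-Erk, phospho-Akt, receptor, phospho-tyrosine), HRP secondary and luminol detection. Signaling analysed in presence of the cognate ligand: EGF for EGFR, NT-3 for TrkC, HGF for c-Met.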

TrkC [2] = experiment: TrkC levels in brain tissue after developmental exposure; format: in vivo, SJL mice; details: 100 or 250 ppb MeHg in maternal drinking water
Text: (§1) Anti-phosphorylated Erk monoclonal, anti-Erk monoclonal, anti-TrkC polyclonal anti-Fyn polyclonal, anti-EGFR polyclonal, anti-c-Met polyclonal, anti-phospho-tyrosine monoclonal, and anti-PDGFRα polyclonal antibodies were obtained from Santa Cruz Biotechnology (Santa Cruz, Calif., United States). Anti-c-Cbl monoclonal antibody was obtained from BD PharMingen (San Diego, Calif., United States). Anti-phosphorylated Akt monoclonal and anti-Akt polyclonal antibodies were obtained from Cell Signaling Technology (Beverly, Mass., United States). Anti-phosphorylated PDGPRα polyclonal antibody was obtained from Biosource (Carlsbad, Calif., United States). The cell culture samples were collected and lysed in RAPI buffer, whereas dissected tissue samples were sonicated in RAPI buffer. Samples were resolved on SDS-PAGE gels and transferred to PVDF membranes (PerkinElmer Life Science. Wellesley, Mass., United States), After being blocked in 5% skim milk in PBS containing 0.1% Tween 20, membranes were incubated with a primary antibody, followed by incubation with an HRP-conjugated secondary antibody (Santa Cruz Biotechnology). Membranes were visualized using Western Blotting Luminol Reagent (Santa Cruz Biotechnology). […]

PDGFRα [3] = experiment: PDGFR ubiquitylation (immunoprecipitation assay); format: cell-based, rat; details: MeHg exposure
Experimental: For the co-immunoprecipitation assay, anti-c-Cbl monoclonal antibody (BD PharMingen) or anti-PDGFRα polyclonal antibody (Santa Cruz Biotechnology) was added to the pre-cleared cell lysates (250 μg of total protein), and the mixtures were gently rocked for 2 h at 4° C. A total of 30 μl of protein A/G agarose was then added to the mixture followed by rotating at 4° C. overnight. The protein A/G agarose was then spun down and washed thoroughly three times. The precipitates were resolved on an 8% SDS-PAGE gel and then were subjected to Western blot analysis using an anti-p-Tyr (for c-Cbl phosphorylation assay) or ubiquitin (for PDGFR ubiquitylation assay) antibody (Santa Cruz Biotechnology).

O-2A/OPCs = experiment: In vivo BrdU incorporation assay with Olig2 co-labeling, corpus callosum; parameters: species or system mice; details: low-level MeHg in maternal drinking water, P14
Experimental: To analyze DNA synthesis in vivo, mice were injected with a single dose of 5-BrdU (50 mg/kg body weight), dissolved in 0.9% NaCl, filtered (0.2 μm), and applied intraperitoneally 2 h prior to perfusion. After removal and sectioning of brains, 40-μm free-floating sections were incubated for 2 h in 50% forraamide/2×SSC (0.3 M NaCl and 0.03 M sodium citrate) at 65° C., rinsed twice for 5 min each in 2×SSC, incubated for 30 min in 2N HCl at 37° C., and rinsed for 10 min in 0.1 M boric acid (pH 8.5) at room temperature. Several rinses in TBS were followed by incubation in TBS/0.1% Triton X-100/3% donkey serum (TBS-plus) for 30 min. Sections were then incubated with monoclonal rat anti-BrdU antibody (1:2,500; Harlan Sera-Lab, Loughborough, United Kingdom) and polyclonal rabbit anti-Olig2 in TBS-plus for 48 h at 4° C. […]
Quantification of BrdU+ cells was accomplished with unbiased counting methods by confocal microscopy. BrdU immunoreaetive nuclei were counted in one focal plane to avoid over-sampling. In corpus callosum, BrdU+ cells were counted in every sixth section (40 μm) from a coronal, series between interaural AP+5.2 mm and AP+3.0 mm in the entire extension of the rostral and medial part of the corpus callosum. Quantitative data are presented as mean percentage normalized to control animals. […]

PDGFRα [4] = experiment: PDGFRα levels in brain tissue after developmental exposure; format: in vivo, SJL mice; details: 100 or 250 ppb MeHg in maternal drinking water; cerebellum, hippocampus, corpus callosum; 7 and 21 d after birth
Text: as §1

EGFR = EGFR levels in brain tissue after developmental exposure; format: in vivo, SJL mice; details: 100 or 250 ppb MeHg in maternal drinking water; 7 and 21 d after birth
Text: as §1

SMILES | effect on TMX effects on cancer cells (cancer cells) | rescue from tamoxifen effect on cell division (MDA-MB-231 cell) | levels of TrkC after toxicant exposure (TrkC [1]) | levels of TrkC in brain (TrkC [2]) | ubiquitylation of PDGFRα (PDGFRα [3]) | reduction in the number of total BrdU+ cells (O-2A/OPCs) | levels of PDGFRα in brain (PDGFRα [4]) | levels of EGFR in brain (EGFR)
CC(=O)N[C@@H](CS)C(=O)O [NAC, N-acetyl-L-cysteine] | not blocked | did not result in any rescue effect |  |  |  |  |  | 
[CH3][Hg][Cl] [MeHg, methylmercury] |  |  | no reduction in levels of TrkC | not reduced | enhanced ubiquitylation | 20% | clear and significant reductions | clear and significant reductions
